Tests used:
[1] = Efflux ratio of apparent permeability from basolateral to apical to apical to basolateral side of human Caco2 cells after 120 mins; assay type: ADME, cell-based; settings: Caco-2
[2] = target: T1, Broad substrate specificity ATP-binding cassette transporter ABCG2 (Homo sapiens, UniProt Q9UNQ0); assay: Activity at BCRP (unknown origin) expressed in MDCK cells using […] as substrate incubated for 30 mins prior to substrate addition measured after 30 mins by fluorometric analysis; assay type: cell-based
T1 sequence (Q9UNQ0 whole entry): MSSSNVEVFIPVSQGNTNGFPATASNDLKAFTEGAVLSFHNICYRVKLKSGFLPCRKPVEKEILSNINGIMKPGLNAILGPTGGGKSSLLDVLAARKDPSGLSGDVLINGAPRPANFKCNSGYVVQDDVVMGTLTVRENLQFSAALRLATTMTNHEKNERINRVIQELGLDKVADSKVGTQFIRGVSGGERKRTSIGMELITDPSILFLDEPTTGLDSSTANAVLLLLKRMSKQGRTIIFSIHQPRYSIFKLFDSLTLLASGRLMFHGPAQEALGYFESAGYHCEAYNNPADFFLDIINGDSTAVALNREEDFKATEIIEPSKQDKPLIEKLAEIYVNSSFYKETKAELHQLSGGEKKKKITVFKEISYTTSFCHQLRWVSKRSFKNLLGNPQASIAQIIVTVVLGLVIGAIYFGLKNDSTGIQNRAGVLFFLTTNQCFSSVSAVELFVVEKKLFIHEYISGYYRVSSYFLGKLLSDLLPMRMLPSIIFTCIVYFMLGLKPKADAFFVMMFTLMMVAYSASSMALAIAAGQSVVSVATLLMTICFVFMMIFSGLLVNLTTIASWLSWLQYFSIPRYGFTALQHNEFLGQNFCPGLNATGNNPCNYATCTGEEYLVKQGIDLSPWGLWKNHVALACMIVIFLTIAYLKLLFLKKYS

MDR1 (ABCB1, P-gp) [3] = target: T2, MDR1 (ABCB1, P-gp) (Homo sapiens, UniProt P08183); assay: Ratio of MC90 EC50 to compound EC50 for MDR1 (unknown origin) by fluorometric analysis; settings: not told, read-out: Ratio EC50
T2 sequence (P08183 whole entry): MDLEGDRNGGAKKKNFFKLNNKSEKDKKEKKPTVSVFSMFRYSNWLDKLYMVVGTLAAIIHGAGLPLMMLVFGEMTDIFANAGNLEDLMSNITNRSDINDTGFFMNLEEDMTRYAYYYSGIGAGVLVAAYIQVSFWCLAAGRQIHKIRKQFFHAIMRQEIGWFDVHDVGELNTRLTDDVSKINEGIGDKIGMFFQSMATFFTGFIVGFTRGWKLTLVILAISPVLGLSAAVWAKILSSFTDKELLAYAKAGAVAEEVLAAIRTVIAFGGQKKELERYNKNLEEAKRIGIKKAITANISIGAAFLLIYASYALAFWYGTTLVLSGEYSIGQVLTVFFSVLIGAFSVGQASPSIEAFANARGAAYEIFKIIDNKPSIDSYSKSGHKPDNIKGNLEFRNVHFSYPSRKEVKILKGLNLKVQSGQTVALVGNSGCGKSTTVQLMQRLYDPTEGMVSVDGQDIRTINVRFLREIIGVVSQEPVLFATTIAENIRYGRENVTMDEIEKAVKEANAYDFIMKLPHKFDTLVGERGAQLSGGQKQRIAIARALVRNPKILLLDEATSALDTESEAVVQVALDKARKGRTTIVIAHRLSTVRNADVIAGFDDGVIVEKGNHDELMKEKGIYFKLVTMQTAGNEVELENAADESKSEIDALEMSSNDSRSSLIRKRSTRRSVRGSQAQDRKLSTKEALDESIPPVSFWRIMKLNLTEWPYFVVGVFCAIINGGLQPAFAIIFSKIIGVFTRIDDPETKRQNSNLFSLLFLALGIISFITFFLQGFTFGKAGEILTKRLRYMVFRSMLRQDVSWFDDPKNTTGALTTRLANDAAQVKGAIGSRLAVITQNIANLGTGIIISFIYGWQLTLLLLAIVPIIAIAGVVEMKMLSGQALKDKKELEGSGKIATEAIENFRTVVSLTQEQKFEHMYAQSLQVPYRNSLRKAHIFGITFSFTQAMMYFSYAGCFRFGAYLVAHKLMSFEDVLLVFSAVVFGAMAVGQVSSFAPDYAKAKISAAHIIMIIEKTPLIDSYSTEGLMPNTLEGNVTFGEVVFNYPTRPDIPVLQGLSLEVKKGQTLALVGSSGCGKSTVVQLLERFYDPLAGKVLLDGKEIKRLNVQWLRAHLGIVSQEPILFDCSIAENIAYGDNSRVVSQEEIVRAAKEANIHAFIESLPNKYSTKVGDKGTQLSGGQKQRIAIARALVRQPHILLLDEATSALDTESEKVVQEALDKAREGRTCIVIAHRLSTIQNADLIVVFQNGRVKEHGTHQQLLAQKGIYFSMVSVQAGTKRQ

[4] = target: ATP-dependent translocase ABCB1 (Homo sapiens, UniProt P08183); assay: Activity at MDR1 (unknown origin) expressed in MDCK cells using calcein AM as substrate incubated for 30 mins prior to substrate addition measured after 30 mins by fluorometric analysis; assay type: cell-based
Sequence of ATP-dependent translocase ABCB1 (P08183 whole entry): as above

[5] = target: Multidrug resistance-associated protein 1 (Homo sapiens, UniProt P33527); assay: Activity at MRP1 (unknown origin) expressed in MDCK cells using calcein AM as substrate incubated for 30 mins prior to substrate addition measured after 30 mins by fluorometric analysis; assay type: cell-based
Sequence of Multidrug resistance-associated protein 1 (P33527 whole entry): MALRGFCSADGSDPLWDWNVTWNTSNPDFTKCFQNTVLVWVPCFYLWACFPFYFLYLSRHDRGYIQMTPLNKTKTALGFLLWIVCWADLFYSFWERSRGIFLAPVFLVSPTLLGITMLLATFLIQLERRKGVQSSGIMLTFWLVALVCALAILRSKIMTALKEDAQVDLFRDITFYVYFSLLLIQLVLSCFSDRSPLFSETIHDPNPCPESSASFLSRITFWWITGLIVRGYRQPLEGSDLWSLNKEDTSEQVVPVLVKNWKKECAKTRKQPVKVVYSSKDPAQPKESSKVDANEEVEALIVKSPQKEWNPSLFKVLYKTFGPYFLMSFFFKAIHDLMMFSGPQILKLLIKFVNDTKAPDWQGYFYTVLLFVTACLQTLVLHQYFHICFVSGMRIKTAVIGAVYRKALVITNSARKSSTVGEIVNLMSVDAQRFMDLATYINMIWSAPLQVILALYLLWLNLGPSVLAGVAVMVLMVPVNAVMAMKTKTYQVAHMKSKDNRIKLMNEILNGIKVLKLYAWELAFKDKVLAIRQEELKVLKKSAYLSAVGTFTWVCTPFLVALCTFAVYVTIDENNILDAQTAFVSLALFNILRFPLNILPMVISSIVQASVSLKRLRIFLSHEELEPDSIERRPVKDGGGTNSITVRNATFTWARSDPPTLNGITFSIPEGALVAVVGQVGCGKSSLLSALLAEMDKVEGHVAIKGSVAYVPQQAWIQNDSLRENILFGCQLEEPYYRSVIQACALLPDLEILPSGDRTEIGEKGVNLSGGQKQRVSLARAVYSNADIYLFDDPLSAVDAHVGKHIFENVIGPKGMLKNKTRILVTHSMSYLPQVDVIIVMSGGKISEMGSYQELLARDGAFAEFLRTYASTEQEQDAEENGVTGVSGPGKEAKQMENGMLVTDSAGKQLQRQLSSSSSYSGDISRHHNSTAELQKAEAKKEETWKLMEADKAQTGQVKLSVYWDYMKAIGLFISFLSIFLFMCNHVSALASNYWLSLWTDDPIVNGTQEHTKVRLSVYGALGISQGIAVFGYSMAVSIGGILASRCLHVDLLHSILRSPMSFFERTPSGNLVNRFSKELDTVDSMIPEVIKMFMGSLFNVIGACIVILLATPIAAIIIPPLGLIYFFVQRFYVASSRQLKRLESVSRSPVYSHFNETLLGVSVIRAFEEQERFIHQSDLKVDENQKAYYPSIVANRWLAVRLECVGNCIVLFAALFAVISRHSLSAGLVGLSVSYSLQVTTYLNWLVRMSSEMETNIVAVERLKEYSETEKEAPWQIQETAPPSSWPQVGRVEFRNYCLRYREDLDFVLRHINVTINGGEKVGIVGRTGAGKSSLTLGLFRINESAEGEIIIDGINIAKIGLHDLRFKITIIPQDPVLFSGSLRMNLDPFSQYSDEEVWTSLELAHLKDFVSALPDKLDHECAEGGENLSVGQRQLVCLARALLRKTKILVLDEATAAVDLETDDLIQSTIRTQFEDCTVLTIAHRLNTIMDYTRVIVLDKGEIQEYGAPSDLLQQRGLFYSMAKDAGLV

MDR1 (ABCB1, P-gp) [6] = target: T2, MDR1 (ABCB1, P-gp); assay: Activity at MDR1 (unknown origin) expressed in MDCK cells assessed as ATPase activity at 50 uM after 2 hrs by ATPlite assay; assay type: cell-based; settings: MDCK cells expressing MDR1, read-out: Activity

Structure (SMILES)	efflux ratio at 2 h [1]	EC50 [2]	EC50 [4]	EC50 [5]	activity at 2 h, 50 µM (MDR1 (ABCB1, P-gp) [6])	selectivity ratio (MDR1 (ABCB1, P-gp) [3])
COc1cc2c(cc1OC)CN(CC/C=C1\CCCc3c(OC)cccc31)CC2	1.64	90 µM				
COc1cc2c(cc1OC)CN(Cc1ccc(Oc3ccc(C(N)=O)cn3)cc1)CC2			19 µM	> 100 µM		
COc1cc2c(cc1OC)CN(Cc1ccc(Oc3ccc(-c4nc(-c5ccc(F)cc5)cs4)cn3)cc1)CC2	4.5	1 µM	0.41 µM	> 100 µM	18%	10
COc1ccc(-c2ccc(CN3CCc4cc(OC)c(OC)cc4C3)cc2)cc1	2.6	15 µM	0.6 µM	21 µM		
COc1cc2c(cc1OC)CN(Cc1ccc(Oc3ccc(C(N)=S)cn3)cc1)CC2			11 µM	> 100 µM		
COc1cc2c(cc1OC)CN(CCc1ccc(NC(=O)c3cc(OC)c(OC)cc3NC(=O)c3cnc4ccccc4c3)cc1)CC2 [TARIQUIDAR]	22				30%	
COc1cc2c(cc1OC)CN(Cc1ccc(Oc3ccc(-c4nc(-c5ccc([N+](=O)[O-])cc5)cs4)cn3)cc1)CC2	2.7	10 µM	0.51 µM	> 100 µM	16%	10

More lines, in order of falling EC50 [4], values ahead:

efflux ratio at 2 h [1]	EC50 [2]	EC50 [4]	EC50 [5]	activity at 2 h, 50 µM (MDR1 (ABCB1, P-gp) [6])	Structure (SMILES)	selectivity ratio (MDR1 (ABCB1, P-gp) [3])
6.1	30 µM	1.94 µM	2.7 µM		COc1ccc(-c2nc(CN3CCc4cc(OC)c(OC)cc4C3)cs2)cc1	
2.5	0.5 µM	0.95 µM	> 100 µM	20%	COc1cccc(-c2csc(-c3ccc(Oc4ccc(CN5CCc6cc(OC)c(OC)cc6C5)cc4)nc3)n2)c1	10
0.9	0.018 µM	0.25 µM	> 100 µM	20%	COc1cc2c(cc1OC)CN(Cc1ccc(Oc3ccc(-c4nc(-c5cccc(O)c5)cs4)cn3)cc1)CC2	10

Reference: ChEMBL document CHEMBL2331297, “Potent and selective tariquidar bioisosters as potential PET radiotracers for imaging P-gp” (Bioorg Med Chem Lett, 2013)
